Measurements published in patent US10301272B2, “Carboxamide or sulfonamide substituted thiazoles and related derivatives as modulators for the orphan nuclear receptor ROR[γ]” (Phenex Pharmaceuticals AG, priority 2012, dated 2019).
Read-outs that look alike come from different tables or passages of the source.

How the values were obtained:
[1] = biological target: RORγ ligand binding domain (LBD) (Homo sapiens (Human), UniProt P51449); assay: TR-FRET Activity Assay (ligand sensing assay, LANCE); conditions: for pIC50 (FRET): TR-FRET, interaction of RORγ-LBD with coactivator peptide
RORγ = RORγ (Homo sapiens, UniProt P51449); assay: RORγ Gal4 Reporter Gene Assay; format: cell-based
In short: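 Cells at 5×10^5/well were transfected with RORγ fragments fused to the GAL4 DNA-binding domain (CMV promoter), a 5×GAL4-site firefly luciferase reporter and CMV-Renilla luciferase for normalization. About 4 h later serum-free MEM and compound were added (vehicle ≤0.1%). Cultures at 37 °C, 5% CO2; at least triplicates.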

[2] = firefly (FF) luciferase, 293T cells, read-out: pIC50 (FF) (converted)
[3] = renilla normalised (RENnorm) luciferase, 293T cells, read-out: pIC50 (REN) (converted)

RORγ ligand binding domain (LBD), sequence (P51449 269-508): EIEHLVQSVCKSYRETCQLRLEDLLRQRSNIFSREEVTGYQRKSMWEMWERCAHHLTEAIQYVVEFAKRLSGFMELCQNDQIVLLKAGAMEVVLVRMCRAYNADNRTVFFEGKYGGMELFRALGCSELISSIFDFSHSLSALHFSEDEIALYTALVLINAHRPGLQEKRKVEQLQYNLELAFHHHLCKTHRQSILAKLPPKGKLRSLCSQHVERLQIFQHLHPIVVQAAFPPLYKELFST
RORγ, sequence (P51449 whole entry, looked up, the tested form may be a part): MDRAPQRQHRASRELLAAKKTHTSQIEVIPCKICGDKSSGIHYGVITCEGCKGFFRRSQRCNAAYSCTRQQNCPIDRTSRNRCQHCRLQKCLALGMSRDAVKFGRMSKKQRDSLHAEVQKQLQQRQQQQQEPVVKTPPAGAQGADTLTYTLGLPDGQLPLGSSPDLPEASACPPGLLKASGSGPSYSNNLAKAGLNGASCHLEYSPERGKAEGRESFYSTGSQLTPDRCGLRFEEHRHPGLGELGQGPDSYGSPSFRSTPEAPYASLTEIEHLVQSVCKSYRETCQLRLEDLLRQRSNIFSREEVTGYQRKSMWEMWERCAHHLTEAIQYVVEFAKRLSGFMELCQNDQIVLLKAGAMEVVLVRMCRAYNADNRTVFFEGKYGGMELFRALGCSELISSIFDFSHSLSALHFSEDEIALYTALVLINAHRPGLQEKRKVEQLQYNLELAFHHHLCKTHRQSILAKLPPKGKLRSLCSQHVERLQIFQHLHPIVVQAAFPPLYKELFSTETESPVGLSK

Compound	pIC50 (FRET) [1]	pIC50 (FF) (RORγ)	pIC50 (REN) (RORγ)	IC50 [1] [nM]	IC50 (RORγ; [2]) [nM]	IC50 (RORγ; [3]) [nM]	pIC50 (FF) (RORγ; firefly (FF) luciferase, 293T cells)	pIC50 (REN) (RORγ; renilla normalised (RENnorm) luciferase, 293T cells)
CCCc1nc(C(=O)NC2CCS(=O)(=O)CC2)sc1-c1ccc(S(=O)(=O)NC(C)(C)C)c(Cl)c1Cl [300/5]	7.0/7.4/7.5	7.0/7.4/7.5	7.0/7.4/7.5	–	–	–	–	–
O=C(N[C@H]1C[C@H](C(=O)O)C1)c1nc(CC2CCCCC2)c(-c2ccc(OCC(F)(F)F)c3ccccc23)s1 [7/22]	–	–	–	> 20000	316	631	–	–
CC(C)(C)NS(=O)(=O)c1ccc(-c2sc(S(N)(=O)=O)nc2CC2CCCCC2)c2ccccc12 [13/3]	6.6/7.5/7.7	6.6/7.5/7.7	6.6/7.5/7.7	–	–	–	–	–
CC(C)(CCNC(=O)c1nc(CC2CCCCC2)c(-c2cc(C(C)(C)C)cc(C3(C)CC3)c2)s1)C(=O)O [Example 7, 4-(5-(3-(tert-Butyl)-5-(1-methylcyclopropyl)phenyl)-4-(cyclohexylmehthyl)thiazole-2-carboxamido)-2,2-dimethylbutanoic acid]	6.3/7.0/7.0	6.3/7.0/7.0	6.3/7.0/7.0	–	–	–	–	–
CC(C)(C)NC(=O)c1cc(-c2sc(C(=O)N[C@H]3C[C@H](C(=O)O)C3)nc2CC2CCCCC2)cc(C(C)(C)C)c1 [9/7]	6.2/7.4/7.5	6.2/7.4/7.5	6.2/7.4/7.5	–	–	–	–	–
CC(C)(C)NS(=O)(=O)c1ccc(-c2sc(C(=O)NC3CS(=O)(=O)C3)nc2CC2CCCCC2)cc1C(C)(C)O [15/3]	6.9/7.9/7.9	6.9/7.9/7.9	6.9/7.9/7.9	–	–	–	–	–
CC(C)(C)NS(=O)(=O)c1ccc(-c2sc(C(=O)NC3CSC3)nc2CC2CCCCC2)c(Cl)c1Cl [6/30]	7.2/8.7/8.7	7.2/8.7/8.7	7.2/8.7/8.7	–	–	–	–	–
CC(C)(C)NS(=O)(=O)c1ccc(-c2sc(C(=O)NCC3(O)CCS(=O)(=O)CC3)nc2CC2CCCCC2)c2ccccc12 [6/5]	6.6/8.5/8.7	6.6/8.5/8.7	6.6/8.5/8.7	–	–	–	–	–
CCS(=O)(=O)c1ccc(CC(=O)Nc2nc(-c3ccccc3)c(Cc3ccccc3)s2)cc1 [Example 211, N-(5-Benzyl-4-phenylthiazol-2-yl)-2-(4-(ethylsulfonyl)phenyl)acetamide]	5.8	–	–	–	–	–	6.3	6.4
COCC(C)(C)NS(=O)(=O)c1ccc(-c2sc(C(=O)N3CC4(CCS(=O)(=O)CC4)C3)nc2CC2CCCCC2)c2ccccc12 [14/2]	6.5/7.4/7.4	6.5/7.4/7.4	6.5/7.4/7.4	–	–	–	–	–
CC(C)(C)NS(=O)(=O)c1ccc(-c2sc(C(=O)NC3CCS(=O)(=O)CC3)nc2CC2CCCCC2)c2ccccc12 [6/6]	6.7/9.0/9.0	6.7/9.0/9.0	6.7/9.0/9.0	–	–	–	–	–
CC(C)(C)NS(=O)(=O)c1ccc(-c2sc(C(=O)N[C@H]3C[C@H](C(=O)O)C3)nc2CC2CCCCC2)c(Cl)c1C(F)(F)F [7/12]	6.2/8.0/8.2	6.2/8.0/8.2	6.2/8.0/8.2	–	–	–	–	–
CC(C)(C)c1cc(-c2ccc(C(N)=O)cc2CC2CCCCC2)cc(C(C)(C)C)c1 [Example 209]	6.4/6.2/6.2	6.4/6.2/6.2	6.4/6.2/6.2	–	–	–	–	–
CCCc1nc(C(=O)N[C@H]2C[C@H](C(=O)O)C2)sc1-c1ccc(S(=O)(=O)NC(C)(C)C)c(Cl)c1Cl [300/6]	–	–	–	200	126	158	–	–
CC(C)(C)c1cc(-c2nc(C(N)=O)oc2CC2CCCCC2)cc(C(C)(C)C)c1 [Example 101, 5-(Cyclohexylmethyl)-4-(3,5-di-tert-butylphenyl)oxazole-2-carboxamide]	6.0	–	–	–	> 20000	> 20000	–	–
CC(C)(C)NS(=O)(=O)c1ccc(-c2sc(C(=O)NCCC(C)(C)C(=O)O)nc2CC2CCCCC2)cc1C(C)(C)C [Example 7/1]	6.1/6.8/6.9	6.1/6.8/6.9	6.1/6.8/6.9	–	–	–	–	–
